Literature values as cited in patent EP2594258B1, “Oral gel comprising praziquantel” (Veterinärmedizinische Universität Wien, priority 2011, dated 2013).

solubility in chloroform (chloroform) | solubility in dimethylsulfoxide (dimethylsulfoxide) | solubility in ethanol (ethanol) | solubility in water (water) | SMILES | intoxication following treatment (alpacas)
easily soluble | easily soluble | soluble | up to 400 mg/L | O=C(C1CCCCC1)N1CC(=O)N2CCc3ccccc3C2C1 (racemic) [Praziquantel, (RS)-2-Cyclohexylcarbonyl-2,3,4,6,7,11b-hexahydro-1H-pyrazino(2,1-a) isoquinolin-4-on] | 
 |  |  |  | CCCSc1ccc2nc(NC(=O)OC)[nH]c2c1 [albendazole] | Lethal intoxications
